Test results from publication PMC8400257, “2-Phenoxy-3-Trichloromethylquinoxalines Are Antiplasmodial Derivatives with Activity against the Apicoplast of Plasmodium falciparum” (Pharmaceuticals, 2021).
Like-named read-outs stand apart in the source and are kept apart here.

What was measured:
[1] = Aqueous solubility in the cell culture medium; assay type: physicochemical
Description: It appeared that the cluttered derivatives (3q, 3s) and the 2-chlorophenoxy derivative (3b) were the less cytotoxic compounds.
The HepG2 cell line was maintained at 37 °C, 5% CO2, at 90% humidity in MEM supplemented with 10% fetal bovine serum, 1% L-glutamine (200 mM), and penicillin (100 U/mL)/streptomycin (100 μg/mL) (complete RPMI medium). The cytotoxicity of the tested molecules on the HepG2 (hepatocarcinoma cell line purchased from ATCC, ref HB-8065) cell line was assessed according to the method of Mosmann with slight modifications. Briefly, 5.10^3 cells in 100 μL of complete medium were inoculated into each well of 96-well plates and incubated at 37 °C in humidified 5% CO2. After 24 h incubation, 100 μL of medium with various product concentrations dissolved in DMSO (final concentration less than 0.5% v/v) were added and the plates were incubated for 72 h at 37 °C. Triplicate assays were performed for each sample. Each plate-well was then microscopically examined for possible precipitate formation before the medium was aspirated from the wells. Next, 100 µL of MTT (3-(4,5-dimethyl-2-thiazolyl)-2,5-diphenyl -2H-tetrazolium bromide) solution (0.5 mg/mL in medium without FBS) was added to each well. Cells were incubated for 2 h at 37 °C. After this time, the MTT solution was removed and DMSO (100 μL) was added to dissolve the resulting blue formazan crystals. Plates were shaken vigorously (700 rpm) for 10 min. The absorbance was measured at 570 nm with 630 nm as reference wavelength using a BIO-TEK ELx808 Absorbance Microplate Reader (LabX, Midland, ON, Canada). DMSO was used as blank and doxorubicin (purchased from Sigma Aldrich) as positive control. Cell viability was calculated as a percentage of control (cells incubated without compound). […] CC50 values to represent the mean value calculated from three independent experiments.

[2] = system: K1 chloroquine and pyrimethamine-resistant P. falciparum strain; test: In vitro antiplasmodial evaluation (SYBR Green I); assay type: cell-based, Plasmodium falciparum; settings: for EC50: read-out: EC50 PfK1 (µM) ± SD; for SI (selectivity index): SI = CC50 HepG2/EC50 PfK1
Description: (§1) For all molecules, the selectivity index was calculated as following SI = CC50/EC50.
It was maintained in continuous culture, as described previously by Trager and Jensen. Cultures were maintained in fresh A+ human erythrocytes at 2.5% hematocrit in complete medium (RPMI 1640 with 25 mM HEPES, 25 mM NaHCO3, 10% of A+ human serum) at 37 °C under reduced O2 atmosphere (gas mixture 10% O2, 5% CO2, and 85% N2). Parasitemia was maintained daily between 1 and 3%. The P. falciparum drug susceptibility test was carried out by comparing quantities of DNA in treated and control cultures of parasite in human erythrocytes according to an SYBR Green I fluorescence-based method using a 96-well fluorescence plate reader. Compounds, previously dissolved in DMSO (final concentration less than 0.5% v/v), were incubated in a total assay volume of 200 μL (RPMI, 2% hematocrit and 0.4% parasitemia) for 72 h in a humidified atmosphere (10% O2 and 5% CO2) at 37 °C, in 96-well flat bottom plates. Duplicate assays were performed for each sample. After incubation, plates were frozen at […] for 24 h. Then, the frozen plates were thawed for 1 h at 37 °C. Fifteen µL of each sample were transferred to 96-well flat bottom non-sterile black plates (Greiner Bio-one, Kremsmünster, Austria), already containing 15 µL of the SYBR Green I lysis buffer (2X SYBR Green I, 20 mM Tris base pH 7.5, 20 mM EDTA, 0.008% w/v saponin, 0.08% w/v Triton X-100). […] Plates were incubated for 15 min at 37 °C and then read on a TECAN Infinite F-200 spectrophotometer with excitation and emission wavelengths at 485 and 535 nm, respectively.

[3] = system: HepG2 human hepatocyte cell line; test: In vitro cytotoxicity evaluation HepG2 (MTT); assay type: cell-based
Description: as §1
(§2) Triplicate assays were performed for each sample. Each plate-well was then microscopically examined for possible precipitate formation before the medium was aspirated from the wells. Next, 100 µL of MTT (3-(4,5-dimethyl-2-thiazolyl)-2,5-diphenyl -2H-tetrazolium bromide) solution (0.5 mg/mL in medium without FBS) was added to each well. […] After this time, the MTT solution was removed and DMSO (100 μL) was added to dissolve the resulting blue formazan crystals. Plates were shaken vigorously (700 rpm) for 10 min. The absorbance was measured at 570 nm with 630 nm as reference wavelength using a BIO-TEK ELx808 Absorbance Microplate Reader (LabX, Midland, ON, Canada). DMSO was used as blank and doxorubicin (purchased from Sigma Aldrich) as positive control. Cell viability was calculated as a percentage of control (cells incubated without compound). […] CC50 values to represent the mean value calculated from three independent experiments.

[4] = In vitro cytotoxicity evaluation HepG2 (MTT); assay type: cell-based, human; settings: human, CC50 HepG2 (µM) ± SD
Description: as §1, §2

[5] = K1 strain, 72 h incubation, three independent experiments
[6] = Plasmodium falciparum, K1, 72 h, K1 strain, 72 h incubation, three independent experiments

Molecule	Aqueous solubility in the cell culture medium [1]	EC50 [2, 5] [µM]	CC50 [3] [µM]	EC50 [2, 6] [µM]	SI (selectivity index) [2]	CC50 at 72 h [4] [µM]	melting point [°C]	CC50 ([3]; human, 72 h) [µM]	EC50 ([2]; Plasmodium falciparum, K1, 72 h) [µM]
2-(Naphthalen-1-yloxy)-3-trichloromethylquinoxaline [3r]	poor aqueous solubility	0.4 ± 0.08	> 31.2	–	–	–	–	–	–
2-(Naphthalen-2-yloxy)-3-trichloromethylquinoxaline [3q]	–	0.6 ± 0.1	53.1 ± 7.6	–	–	–	–	–	–
ClC(Cl)(Cl)c1nc2ccccc2nc1Oc1ccccc1 [3a, 2-Phenoxy-3-trichloromethylquinoxaline]	–	–	–	0.47 ± 0.1	96.4	45.3 ± 9.6	59	–	–
Clc1ccccc1Oc1nc2ccccc2nc1C(Cl)(Cl)Cl [3b, 2-(2-Chlorophenoxy)-3-trichloromethylquinoxaline]	–	–	–	0.55 ± 0.12	90.0	49.5 ± 10.1	99	–	–
Clc1cccc(Oc2nc3ccccc3nc2C(Cl)(Cl)Cl)c1 [3c]	–	–	–	0.34 ± 0.06	109.4	37.2 ± 8.1	58	–	–
Clc1ccc(Oc2nc3ccccc3nc2C(Cl)(Cl)Cl)c(Cl)c1 [3d, 2-(2,4-Dichlorophenoxy)-3-trichloromethylquinoxaline]	–	–	–	0.6 ± 0.12	62.8	37.7 ± 4.7	120	–	–
Fc1ccccc1Oc1nc2ccccc2nc1C(Cl)(Cl)Cl [3e, 2-(2-Fluorophenoxy)-3-trichloromethylquinoxaline]	poor aqueous solubility	–	–	0.64 ± 0.14	>24.4	> 15.6	138	–	–
Fc1cccc(Oc2nc3ccccc3nc2C(Cl)(Cl)Cl)c1 [3f, 2-(3-Fluorophenoxy)-3-trichloromethylquinoxaline]	–	–	–	0.32 ± 0.07	105.0	33.5 ± 6.3	101	–	–
Fc1ccc(Oc2nc3ccccc3nc2C(Cl)(Cl)Cl)cc1 [3g, 2-(4-Fluorophenoxy)-3-trichloromethylquinoxaline]	–	–	–	0.42 ± 0.09	85.5	35.9 ± 7.5	56	–	–
COc1ccc(Oc2nc3ccccc3nc2C(Cl)(Cl)Cl)cc1 [3h, 2-(4-Methoxyphenoxy)-3-trichloromethylquinoxaline]	poor aqueous solubility	–	–	0.38 ± 0.08	>20.6	> 7.8	171	–	–
FC(F)(F)c1ccc(Oc2nc3ccccc3nc2C(Cl)(Cl)Cl)cc1 [3j, 2-Trichloromethyl-3-[4-(trifluoromethyl)phenoxy]quinoxaline]	–	–	–	0.3 ± 0.06	94.3	28.3 ± 4.4	129	–	–
FC(F)(F)Oc1ccc(Oc2nc3ccccc3nc2C(Cl)(Cl)Cl)cc1 [3k, 2-Trichloromethyl-3-[4-(trifluoromethoxy)phenoxy]quinoxaline]	–	–	–	0.4 ± 0.08	67.8	27.1 ± 4.7	66	–	–
FS(F)(F)(F)(F)c1ccc(Oc2nc3ccccc3nc2C(Cl)(Cl)Cl)cc1 [3l, 2-Trichloromethyl-3-[4-(pentafluorosulfanyl)phenoxy]quinoxaline]	–	–	–	0.2 ± 0.03	83.0	15.4	99	16.6 ± 3.9	–
FC(F)(F)Sc1ccc(Oc2nc3ccccc3nc2C(Cl)(Cl)Cl)cc1 [3m, 2-Trichloromethyl-3-[4-(trifluoromethylthio)phenoxy]quinoxaline]	–	–	–	0.2 ± 0.04	128.0	25.6 ± 4.6	94	–	–
N#Cc1ccc(Oc2nc3ccccc3nc2C(Cl)(Cl)Cl)cc1 [3n, 4-[(3-Trichloromethylquinoxalin-2-yl)oxy]benzonitrile]	–	–	–	0.2	–	16.6	194	15.4 ± 2.1	–
O=S(=O)(c1ccc(Oc2nc3ccccc3nc2C(Cl)(Cl)Cl)cc1)C(F)(F)F [3o, 2-Trichloromethyl-3-[4-(trifluoromethylsulfonyl)phenoxy]quinoxaline]	–	–	–	0.22 ± 0.07	32.7	7.2 ± 1.4	107	–	–
N=S(=O)(c1ccc(Oc2nc3ccccc3nc2C(Cl)(Cl)Cl)cc1)C(F)(F)F (stereo not drawn) [3p, 2-Trichloromethyl-3-[4-(S-trifluoromethylsulfonimidoyl)phenoxy]quinoxaline]	–	–	–	0.21 ± 0.05	31.0	6.5 ± 1.4	127	–	–
ClC(Cl)(Cl)c1nc2ccccc2nc1Oc1ccc(-c2ccccc2)cc1 [3s, 2-([1,1′-Biphenyl]-4-yloxy)-3-trichloromethylquinoxaline]	poor aqueous solubility	–	–	0.6 ± 0.1	>104.2	> 62.5	160	–	–
ClC(Cl)(Cl)c1nc2ccccc2nc1Oc1cccc(-c2ccccc2)c1 [3t, 2-([1,1′-Biphenyl]-3-yloxy)-3-trichloromethylquinoxaline]	poor aqueous solubility	–	–	0.5 ± 0.05	>62.5	> 31.2	–	–	–
O=[N+]([O-])c1ccc(Oc2cnc3ccccc3n2)cc1 [3u, 2-(4-Nitrophenoxy)quinoxaline]	–	> 16	–	> 25	–	–	156	–	–
O=[N+]([O-])c1ccc(Oc2nc3ccccc3nc2C(F)(F)F)cc1 [3v, 2-(4-Nitrophenoxy)-3-trifluoromethylquinoxaline]	–	> 16	–	> 25	–	–	125	–	–
O=[N+]([O-])c1ccc(Oc2nc3ccccc3nc2C(Cl)Cl)cc1 [3w, 2-Dichloromethyl-3-(4-nitrophenoxy)quinoxaline]	–	–	–	> 16	–	–	112	–	–
C[C@H]1[C@H](OC(=O)CCC(=O)O)O[C@@H]2O[C@@]3(C)CC[C@H]4[C@H](C)CC[C@@H]1[C@@]24OO3 [Artesunate, reference compound]	–	–	–	0.003 ± 0.0012	4900	14.7 ± 1.4	–	–	–
CCN(CC)CCCC(C)Nc1ccnc2cc(Cl)ccc12 (stereo not drawn) [Chloroquine, reference compound]	–	–	–	–	–	–	–	–	0.8
COc1cccc2c1C(=O)c1c(O)c3c(c(O)c1C2=O)C[C@@](O)(C(=O)CO)C[C@@H]3O[C@H]1C[C@H](N)[C@H](O)[C@H](C)O1 [Doxorubicin, reference compound]	–	–	–	–	–	0.2	–	–	–
C[C@H]1c2cccc(O)c2C(=O)C2=C(O)[C@]3(O)C(=O)C(C(N)=O)=C(O)[C@@H](N(C)C)[C@@H]3[C@@H](O)[C@@H]21 [Doxycycline, reference compound]	–	–	–	6	3.3	20	–	–	–
